In PubChem BioAssay AID328 (DTP/NCI, 2004) one finds T/C data, which are given here for 16 molecules.

The test concerns BDF1 mice, P388 leukemia ip, median survival T/C. Description: NCI In Vivo Anticancer Drug Screen. Data for tumor model P388 Leukemia (intraperitoneal) in B6D2F1 (BDF1) mice. To be noted: endpoint: median survival time, higher = longer survival. Put shortly: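 Reported as T/C, where T is the survival measurement in dosed animals and C the same measurement in vehicle controls.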

The mark [1] stands for this setting: dose: 100.0 mg/kg/injection, schedule: Q04DX003 (ip), vehicle: saline with Tween-80.
The mark [2] stands for this setting: dose: 200.0 mg/kg/injection, schedule: Q04DX003 (ip), vehicle: saline with Tween-80.
Where [3] appears, read: dose: 400.0 mg/kg/injection, schedule: Q04DX003 (ip), vehicle: saline with Tween-80.
The mark [4] stands for this setting: dose: 50.0 mg/kg/injection, schedule: Q04DX003 (ip), vehicle: saline sonified.
[5] abbreviates: dose: 200.0 mg/kg/injection, schedule: Q04DX003 (ip), vehicle: saline sonified.
[6] abbreviates: dose: 7.0 mg/kg/injection, schedule: Q01DX009 (ip), vehicle: saline.

Several values for one entry are separate records, joined by “and”; a condition that tells them apart may be missing. Identical values can stand only once. Toxic doses and inconclusive results are not listed.

Turning to `COc1cc2c(cc1OC)C(=O)C(c1ccc3c(c1)OCO3)CC2` (stereo unspecified), the T/C (dose: 12.5 mg/kg/injection, schedule: Q01DX009 (ip), vehicle: water) was 98 % of control; the T/C (dose: 12.5 mg/kg/injection, schedule: Q04DX003 (ip), vehicle: water) is 95 % of control; the T/C (dose: 25.0 mg/kg/injection, schedule: Q01DX009 (ip), vehicle: water) is 93 % of control; the T/C (dose: 25.0 mg/kg/injection, schedule: Q04DX003 (ip), vehicle: water) is 101 % of control; the T/C (dose: 50.0 mg/kg/injection, schedule: Q01DX009 (ip), vehicle: water) is 88 % of control and 92 % of control; the T/C (dose: 50.0 mg/kg/injection, schedule: Q04DX003 (ip), vehicle: water) is 100 % of control. Moreover, the T/C was 93 % of control (dose: 75.0 mg/kg/injection, schedule: Q01DX009 (ip), vehicle: water); 87 % of control (dose: 100.0 mg/kg/injection, schedule: Q01DX009 (ip), vehicle: water); 88 % of control (dose: 100.0 mg/kg/injection, schedule: Q04DX003 (ip), vehicle: water); 91 % of control (dose: 200.0 mg/kg/injection, schedule: Q01DX009 (ip), vehicle: water).
In the case of `CCSC(C#N)=C(c1ccccc1)c1ccccc1`, the T/C runs as follows: under setting [1], 103 % of control; under setting [2], 94 % of control; under setting [3], 92 % of control.
On to `COc1cc(C=Nc2ccc3c(c2)Cc2ccccc2-3)ccc1O`, for which the T/C is, setting by setting: under setting [4], 104 % of control; under setting [5], 95 % of control.
With `Nc1ccc(-c2ccc(N)cc2Br)c(Br)c1`, the T/C was 100 % of control under setting [1], 95 % of control under setting [2] and 104 % of control under setting [3].
`CCC(C)(CCC(=O)O)c1ccccc1` (stereo unspecified): the T/C is, setting by setting: (dose: 100.0 mg/kg/injection, schedule: Q04DX002 (ip), vehicle: saline with Tween-80) 97 % of control; (dose: 200.0 mg/kg/injection, schedule: Q04DX002 (ip), vehicle: saline with Tween-80) 103 % of control; (dose: 400.0 mg/kg/injection, schedule: Q04DX002 (ip), vehicle: saline with Tween-80) 106 % of control.
For the molecule `O=c1oc2ccc(O)cc2c2ccccc12`, the T/C is 95 % of control under setting [4]; 100 % of control (dose: 100.0 mg/kg/injection, schedule: Q04DX003 (ip), vehicle: saline sonified); 104 % of control under setting [5].
As for `O=c1[nH]cc(Br)c2sccc12`, the T/C is, setting by setting: (dose: 150.0 mg/kg/injection, schedule: Q01DX009 (ip), vehicle: saline) 90 % of control; (dose: 225.0 mg/kg/injection, schedule: Q01DX009 (ip), vehicle: saline) 86 % of control.
Take `CC1=[N+](C)C(C)(C)CC(C)O1` (stereo unspecified): the T/C is 100 % of control (dose: 4.5 mg/kg/injection, schedule: Q01DX009 (ip), vehicle: saline); 100 % of control (dose: 6.25 mg/kg/injection, schedule: Q01DX009 (ip), vehicle: saline); 108 % of control under setting [6]; 100 % of control (dose: 11.0 mg/kg/injection, schedule: Q01DX009 (ip), vehicle: saline); 95 % of control (dose: 12.5 mg/kg/injection, schedule: Q01DX009 (ip), vehicle: saline); 103 % of control and 104 % of control (dose: 16.5 mg/kg/injection, schedule: Q01DX009 (ip), vehicle: saline). The T/C runs as follows: (dose: 37.5 mg/kg/injection, schedule: Q01DX009 (ip), vehicle: saline) 92 % of control and 109 % of control; (dose: 200.0 mg/kg/injection, schedule: Q01DX009 (ip), vehicle: saline) 90 % of control.
Regarding `COc1ccc(OC)c(/C=C/c2ccc3ccccc3n2)c1`, the T/C runs as follows: (dose: 50.0 mg/kg/injection, schedule: Q04DX003 (ip), vehicle: saline with Tween-80) 105 % of control; under setting [1], 100 % of control and 105 % of control; under setting [2], 110 % of control; under setting [3], 100 % of control.
Take `CCOC(=O)CNC(=O)Sc1ccc(C(C)(C)C)cc1`: the T/C is, setting by setting: (dose: 25.0 mg/kg/injection, schedule: Q01DX009 (ip), vehicle: Klucel (hydroxypropylcellulose) (HPC)) 121 % of control; (dose: 200.0 mg/kg/injection, schedule: Q01DX009 (ip), vehicle: Klucel (hydroxypropylcellulose) (HPC)) 108 % of control.
With `CN(C)CC(C(=O)c1ccc(Br)cc1)C(Br)c1ccccc1` (stereo unspecified), the T/C reads like this: (dose: 0.78 mg/kg/injection, schedule: Q01DX009 (ip), vehicle: Klucel (hydroxypropylcellulose) (HPC)) 100 % of control; (dose: 1.56 mg/kg/injection, schedule: Q01DX009 (ip), vehicle: Klucel (hydroxypropylcellulose) (HPC)) 95 % of control; (dose: 3.12 mg/kg/injection, schedule: Q01DX009 (ip), vehicle: Klucel (hydroxypropylcellulose) (HPC)) 108 % of control; (dose: 4.6 mg/kg/injection, schedule: Q01DX009 (ip), vehicle: saline) 113 % of control; under setting [6], 118 % of control; (dose: 10.0 mg/kg/injection, schedule: Q01DX009 (ip), vehicle: saline) 109 % of control. The T/C is 108 % of control (dose: 14.0 mg/kg/injection, schedule: Q01DX009 (ip), vehicle: saline); 100 % of control (dose: 16.25 mg/kg/injection, schedule: Q04DX003 (ip), vehicle: saline); 108 % of control (dose: 22.0 mg/kg/injection, schedule: Q01DX009 (ip), vehicle: saline); 105 % of control (dose: 32.5 mg/kg/injection, schedule: Q04DX003 (ip), vehicle: saline); 110 % of control (dose: 65.0 mg/kg/injection, schedule: Q04DX003 (ip), vehicle: saline).
For `COCC(O)CN1CCN(c2ccccc2C)CC1` (stereo unspecified), the T/C is, setting by setting: (dose: 25.0 mg/kg/injection, schedule: Q01DX009 (ip), vehicle: saline with Tween-80) 87 % of control; (dose: 50.0 mg/kg/injection, schedule: Q01DX009 (ip), vehicle: saline with Tween-80) 95 % of control; (dose: 100.0 mg/kg/injection, schedule: Q01DX009 (ip), vehicle: saline with Tween-80) 91 % of control.
On to `CC(C)(C#N)Nc1ccccc1`, for which the T/C by setting is: (dose: 3.13 mg/kg/injection, schedule: Q01DX009 (ip), vehicle: saline with Tween-80) 90 % of control and 100 % of control; (dose: 6.25 mg/kg/injection, schedule: Q01DX009 (ip), vehicle: saline with Tween-80) 90 % of control and 95 % of control; (dose: 12.5 mg/kg/injection, schedule: Q01DX009 (ip), vehicle: saline with Tween-80) 95 % of control.
For `COc1cc(C=Nc2ccc(C(=O)O)c(O)c2)ccc1N(CCCl)CCCl`, the T/C is, setting by setting: (dose: 3.6 mg/kg/injection, schedule: Q01DX009 (ip), vehicle: Klucel (hydroxypropylcellulose) (HPC)) 196 % of control; (dose: 5.4 mg/kg/injection, schedule: Q01DX009 (ip), vehicle: Klucel (hydroxypropylcellulose) (HPC)) 94 % of control; (dose: 8.2 mg/kg/injection, schedule: Q01DX009 (ip), vehicle: Klucel (hydroxypropylcellulose) (HPC)) 245 % of control; (dose: 8.3 mg/kg/injection, schedule: Q01DX009 (ip), vehicle: Klucel (hydroxypropylcellulose) (HPC)) 184 % of control; (dose: 12.5 mg/kg/injection, schedule: Q01DX009 (ip), vehicle: Klucel (hydroxypropylcellulose) (HPC)) 230 % of control and 272 % of control and 213 % of control; (dose: 12.5 mg/kg/injection, schedule: Q04DX003 (ip), vehicle: Klucel (hydroxypropylcellulose) (HPC)) 115 % of control. The T/C was 96 % of control (dose: 18.75 mg/kg/injection, schedule: Q01DX009 (ip), vehicle: Klucel (hydroxypropylcellulose) (HPC)); 115 % of control (dose: 25.0 mg/kg/injection, schedule: Q04DX003 (ip), vehicle: Klucel (hydroxypropylcellulose) (HPC)); 100 % of control (dose: 50.0 mg/kg/injection, schedule: Q04DX003 (ip), vehicle: Klucel (hydroxypropylcellulose) (HPC)).
`O=C1CCCN1C1=CC2=C(CCc3ccccc32)S(=O)(=O)O1`: the T/C (dose: 100.0 mg/kg/injection, schedule: Q04DX003 (ip), vehicle: saline) was 90 % of control; the T/C (dose: 200.0 mg/kg/injection, schedule: Q04DX003 (ip), vehicle: saline) is 100 % of control; the T/C (dose: 400.0 mg/kg/injection, schedule: Q04DX003 (ip), vehicle: saline) was 100 % of control.
For `Cc1nc(N)c2nc(SCc3ccc(Cl)cc3)c(N)nc2n1`, the T/C runs as follows: under setting [2], 86 % of control; under setting [3], 97 % of control.
